Source: paper PMC8717366, “Synthesis and Pharmacological Characterization of Visabron, a Backbone Cyclic Peptide Dual Antagonist of α4β1 (VLA-4)/α9β1 Integrin for Therapy of Multiple Sclerosis” (JACS Au, 2021)
Numbered stars: 1 amine (or outer) side, 2 acyl side, 3 side chain; on linkers, the order of the positions; unused ones are H or OH. Bridge positions count the residues as written; N and C are the ends. Square brackets hold non-standard residues; d marks the D form. Peptide text beside a SMILES is read from it. CO = O=C([*:1])[*:2]; Nlys = NCCCCNCC(=O)O

Experiments:
[1] = Single-dose toxicity: blood cell counting and biochemistry analyses; assay type: in vivo, C57BL/6 male mice
[2] = tested on: cyclooxygenase (COX) enzymes; assay: SafetyScreen44 enzyme inhibition, cyclooxygenases; assay type: biochemical; details: 1 mM; Figure 6
Description: (§1) Screening of potentially significant off-target effects to binding and enzyme targets was performed via SafetyScreen44 offered by Eurofins Cerep-Panlabs. Visabron c (4–4) was tested at 1 and 0.1 mM. Compound binding was calculated as the percentage of inhibition of the binding of a radioactively labeled ligand specific for each target. The compound enzyme inhibitory effect was calculated as the percentage of inhibition of control enzyme activity. Results showing inhibition higher than 40% were considered to represent significant effects of the tested compound. Results showing inhibition lower than 25% as obtained with 0.1 mM Visabron c (4–4) were not considered significant and were mostly attributable to the variability of the signal around the control level. In each experiment, the respective reference compound was tested concurrently with visabron c (4–4), and the data were compared with historical values determined at Eurofins. The experiment was statistically accepted in accordance with the Eurofins validation standard operating procedure.

Lck kinase = molecular target: T1, Lck kinase (Homo sapiens, UniProt P06239); assay: SafetyScreen44 enzyme inhibition, Lck kinase; assay type: biochemical
T1 construct: purchased Eurofins Cerep-Panlabs (contract screen) SafetyScreen44
T1 sequence (P06239 whole entry): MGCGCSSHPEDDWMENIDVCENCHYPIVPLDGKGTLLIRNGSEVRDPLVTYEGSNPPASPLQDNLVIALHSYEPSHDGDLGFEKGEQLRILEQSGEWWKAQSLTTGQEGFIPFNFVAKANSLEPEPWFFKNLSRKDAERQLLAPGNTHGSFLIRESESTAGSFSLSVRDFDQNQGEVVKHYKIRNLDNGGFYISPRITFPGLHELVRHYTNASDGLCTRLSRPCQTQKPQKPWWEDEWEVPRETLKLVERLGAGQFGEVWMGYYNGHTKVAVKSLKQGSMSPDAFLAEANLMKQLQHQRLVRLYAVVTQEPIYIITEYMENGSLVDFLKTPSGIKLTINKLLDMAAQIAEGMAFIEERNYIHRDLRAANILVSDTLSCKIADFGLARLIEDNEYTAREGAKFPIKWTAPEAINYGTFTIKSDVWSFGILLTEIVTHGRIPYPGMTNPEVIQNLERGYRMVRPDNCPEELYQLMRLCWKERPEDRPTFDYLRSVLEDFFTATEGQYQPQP
Description: as §1

EGFR = molecular target: T2, EGFR (Homo sapiens, UniProt P00533); assay: PhosphoSens CSox-based kinase assay, EGFR; assay type: biochemical; details: 1 mM, but not 0.1 mM; Figure 7
T2 construct: purchased BPS BS 40187
T2 sequence (P00533 25-1210): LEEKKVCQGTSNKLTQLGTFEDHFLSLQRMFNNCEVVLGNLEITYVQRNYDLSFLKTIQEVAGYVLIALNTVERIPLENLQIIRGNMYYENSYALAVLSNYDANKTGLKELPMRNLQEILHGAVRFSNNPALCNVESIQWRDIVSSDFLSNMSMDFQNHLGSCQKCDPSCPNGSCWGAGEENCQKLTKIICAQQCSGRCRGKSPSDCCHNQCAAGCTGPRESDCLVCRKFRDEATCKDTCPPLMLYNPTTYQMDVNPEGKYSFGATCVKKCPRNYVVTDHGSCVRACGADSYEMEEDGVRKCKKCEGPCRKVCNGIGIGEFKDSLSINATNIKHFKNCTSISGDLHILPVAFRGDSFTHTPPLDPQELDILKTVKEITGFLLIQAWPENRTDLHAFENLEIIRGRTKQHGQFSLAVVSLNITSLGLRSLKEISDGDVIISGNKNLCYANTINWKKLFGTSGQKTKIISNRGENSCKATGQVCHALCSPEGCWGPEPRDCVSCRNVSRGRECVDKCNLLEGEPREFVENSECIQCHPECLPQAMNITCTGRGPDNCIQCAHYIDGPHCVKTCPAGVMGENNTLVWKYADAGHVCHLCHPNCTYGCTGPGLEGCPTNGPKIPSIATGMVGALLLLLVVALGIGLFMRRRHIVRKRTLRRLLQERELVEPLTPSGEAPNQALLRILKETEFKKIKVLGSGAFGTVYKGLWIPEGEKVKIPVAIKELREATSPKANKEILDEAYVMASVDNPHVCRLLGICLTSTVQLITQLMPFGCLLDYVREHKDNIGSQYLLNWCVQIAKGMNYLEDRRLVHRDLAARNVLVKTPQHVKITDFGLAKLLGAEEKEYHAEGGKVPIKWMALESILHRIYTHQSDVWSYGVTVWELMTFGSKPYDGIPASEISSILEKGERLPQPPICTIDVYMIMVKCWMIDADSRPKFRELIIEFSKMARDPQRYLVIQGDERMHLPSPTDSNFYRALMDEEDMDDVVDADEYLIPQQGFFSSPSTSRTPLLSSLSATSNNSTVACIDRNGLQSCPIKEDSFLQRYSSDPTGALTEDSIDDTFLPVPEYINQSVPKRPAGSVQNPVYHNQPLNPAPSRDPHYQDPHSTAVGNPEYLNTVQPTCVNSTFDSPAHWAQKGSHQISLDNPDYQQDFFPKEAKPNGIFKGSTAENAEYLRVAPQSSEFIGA
Description: (§2) Kinase activity was measured using the PhosphoSenstechnology (AssayQuant Technologies Inc., Marlborough, MA) as detailed in the Supporting Information. […]
(§3) Visabron c (4-4) safety by in vitro evaluation using PhosphoSens - CSox based kinase assays:
(§4) A powerful method was used to measure the activity of recombinant protein kinases using a homogeneous and continuous (kinetic) format, where the level of chelation-enhanced fluorescence (CHEF) that is directly proportional to the amount of phosphorylated, real-time sensors consisting of sulfonamido-oxine (Sox) chromophore, linked to a peptide or protein substrates of selective kinases 6. […]
(§5) Kinase activity measurements: Kinase activity was measured continuously using the PhosphoSens® technology (AssayQuant Technologies Inc., Marlborough, MA) according to the manufacturers’ recommendations. This one-step homogeneous assay format uses chelation -enhanced fluorescence via optimized substrate sensors containing the unnatural fluorogenic amino -acid Sox. […]
(§6) Final reaction conditions : Protein kinase activity was determined in 54 mM HEPES, pH 7.5, 1 mM ATP, 1.2 mM DTT, 0.012% Brij-35, 0.52 mM EGTA, 10 mM MgCl2, 1% glycerol, 0.2mg/ml BSA, and 15 μM Sox -based sensor. […]

JAK3 = molecular target: T3, JAK3 (Homo sapiens, UniProt P52333); assay: PhosphoSens CSox-based kinase assay, JAK3; assay type: biochemical; details: 1 mM, but not 0.1 mM; Figure 7
T3 construct: purchased Carna 08-046
T3 sequence (P52333 whole entry): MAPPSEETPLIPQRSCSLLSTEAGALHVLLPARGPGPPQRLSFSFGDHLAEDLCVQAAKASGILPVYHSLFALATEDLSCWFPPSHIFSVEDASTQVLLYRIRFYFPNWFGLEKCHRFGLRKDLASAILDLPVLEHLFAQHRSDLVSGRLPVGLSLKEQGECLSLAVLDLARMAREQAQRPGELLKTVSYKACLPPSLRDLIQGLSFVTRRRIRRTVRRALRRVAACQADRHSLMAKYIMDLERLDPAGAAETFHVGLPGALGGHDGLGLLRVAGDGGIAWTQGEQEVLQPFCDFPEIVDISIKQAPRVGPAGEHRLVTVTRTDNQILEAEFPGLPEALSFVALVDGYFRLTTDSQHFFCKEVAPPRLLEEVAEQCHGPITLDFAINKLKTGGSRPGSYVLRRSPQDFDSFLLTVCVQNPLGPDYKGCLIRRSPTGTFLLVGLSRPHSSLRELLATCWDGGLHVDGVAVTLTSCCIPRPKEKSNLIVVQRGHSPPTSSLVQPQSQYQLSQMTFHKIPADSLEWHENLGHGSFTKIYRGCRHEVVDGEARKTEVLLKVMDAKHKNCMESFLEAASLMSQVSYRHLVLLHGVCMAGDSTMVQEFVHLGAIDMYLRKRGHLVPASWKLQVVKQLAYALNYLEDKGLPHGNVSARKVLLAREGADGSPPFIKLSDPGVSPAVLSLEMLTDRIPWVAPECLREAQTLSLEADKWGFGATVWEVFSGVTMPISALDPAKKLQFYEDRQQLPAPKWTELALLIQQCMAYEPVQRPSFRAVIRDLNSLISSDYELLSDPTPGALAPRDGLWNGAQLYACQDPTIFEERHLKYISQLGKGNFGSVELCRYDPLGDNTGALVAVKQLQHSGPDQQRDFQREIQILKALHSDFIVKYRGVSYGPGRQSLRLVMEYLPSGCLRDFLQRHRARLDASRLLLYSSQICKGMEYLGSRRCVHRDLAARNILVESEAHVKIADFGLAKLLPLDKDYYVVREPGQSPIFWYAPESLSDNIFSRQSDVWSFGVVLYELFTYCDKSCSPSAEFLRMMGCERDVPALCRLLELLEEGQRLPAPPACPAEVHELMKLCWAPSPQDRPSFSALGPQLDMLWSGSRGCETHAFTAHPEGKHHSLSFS
Description: as §2, §3, §4, §5, §6

[3] = human, in vivo; cited from earlier work
[4] = blood 24 hours after i.v. 500 mg/kg, n=5

CSCC[C@@H]1NC(=O)[C@H]([C@@H](C)O)NC(=O)CN(C(=O)[C@@H](N)CCCCN)CCCCNC(=O)NCCCCN(CC(=O)N[C@@H](CC(C)C)C(N)=O)C(=O)[C@H](CC(=O)O)NC(=O)[C@H](CC(C)C)NC1=O [visabron c (4–4)] (H-K[Nlys]TMLD[Nlys]L-NH2; linker 2-7 via CO)
Acute tolerability, single dose ([1]; 24 h after i.v. injection, C57BL/6 male mice): 500 mg/kg
Blood count and electrolytes vs control mice ([1]; 24 hours from i.v. injection, dose printed 250 mg/kg in this block): No significant differences
ALP [1, 4]: 84±7 U/L
ALT [1, 4]: 41±4 U/L
AST [1, 4]: 92±11 U/L
Albumin [1, 4]: 2.8±0.2 gr/dL
BUN [1, 4]: 14 ± 3.2 mg/dL
Calcium [1, 4]: 9.8 ± 1.2 mg/dL
Chloride [1, 4]: 105 ± 9.2 mmol/L
Cholesterol [1, 4]: 105 ± 8.6 mg/dL
Creatinine [1, 4]: 0.3 ± 0.07 mg/dL
Glucose [1, 4]: 279 ± 31 mg/dL
HCT [1, 4]: 45±2.5%
HGB [1, 4]: 14.8 ± 0.5 g/dL
MCH [1, 4]: 14.8 ± 0.6 pg
MCHC [1, 4]: 29 ± 1.3 g/dL
MCV [1, 4]: 48 ± 2.5 fL
MPV [1, 4]: 5 ± 0.9 fL
RBC [1, 4]: 9.0±0.9 m/ µL
RDW [1, 4]: 17.1±0.4%
WBC [1, 4]: 7.9±0.8 k/µL
Inhibition of cyclooxygenase (COX) enzymes [2]: moderately inhibited
Inhibitory effect on Lck (Lck kinase; 100 μM, data not shown): not observed
Inhibition of Lck kinase activity (Lck kinase; 1 mM, Figure 6): strongly inhibited
inhibition at 1000 µM (EGFR): 25 to 40%
inhibition at 1000 µM (JAK3): 25 to 40%

natalizumab: clinical-grade monoclonal antibody anti-α4β1 produced by Biogen Co. [reference compound]
Multiple sclerosis patients with anti-natalizumab-neutralizing antibodies [3]: 6–9%
Patients with neutralizing antibodies toward natalizumab that cause loss of drug efficacy [3]: about 6%
